Experimental findings from patent publication US20110294810A1, “SUBSTITUTED (PYRIDYL)-AZINYLAMINE DERIVATIVES AS PLANT PROTECTION AGENTS” (priority 2008, published 2011) are described below.

Read-outs that look alike come from different tables or passages of the source.

In data set [1] the test system is Puccinia recondita. Put plainly: In vivo test on Puccinia recondita (brown rust), wheat plants. Particulars: 500 ppm, wheat plants sprayed 24 hours before contamination, grading 10 days after contamination. On the procedure:
Wheat plants (Scipion variety) sown on 50/50 peat soil-pozzolana substrate in starter cups and grown at 12° C., are treated at the 1-leaf stage (10 cm tall) by spraying with the aqueous suspension described above. Plants, used as controls, are treated with an aqueous solution not containing the active material. After 24 hours, the plants are contaminated by spraying the leaves with an aqueous suspension of Puccinia recondita spores (100,000 spores per ml). […] The contaminated wheat plants are incubated for 24 hours at 20° C. and at 100% relative humidity, and then for 10 days at 20° C. and at 70% relative humidity. Grading is carried out 10 days after the contamination, in comparison with the control plants. Under these conditions, good (at least 70%) or total protection is observed at a dose of 500 ppm with the following compound: A4

A short description of data set [2]: Measurement of logP values by HPLC on reversed phase columns (EEC directive 79/831 Annex V.A8). Format: physicochemical. To be noted: for log p: pH 2.7; for chromatographic logP: reversed phase HPLC column.
Data set [3] concerns Pyricularia oryzae. Format: in vivo. Particulars: 250 ppm of active ingredient, rice, protective, evaluated 5 days after inoculation.
Data set [4] concerns Cochliobolus miyabeanus. In words: Cochliobolus test (rice) / protective. To be noted: 250 ppm of active ingredient, evaluated 4 days after inoculation. Format: in vivo.
The test system of data set [5] is Peronospora parasitica. In words: In vivo test on Peronospora parasitica (crucifer downy mildew), cabbage plants. Particulars: 500 ppm, cabbage plants sprayed 24 hours before contamination, grading 5 days after contamination. On the procedure: Cabbage plants (Eminence variety) in starter cups, sown on a 50/50 peat soil-pozzolana substrate and grown at 18-20° C., are treated at the cotyledon stage by spraying with the aqueous suspension described above. Plants, used as controls, are treated with an aqueous solution not containing the active material. After 24 hours, the plants are contaminated by spraying them with an aqueous suspension of Peronospora parasitica spores (50 000 spores per ml). The spores are collected from infected plant. The contaminated cabbage plants are incubated for 5 days at 20° C., under a humid atmosphere. Grading is carried out 5 days after the contamination, in comparison with the control plants. Under these conditions, good (at least 70%) or total protection is observed at a dose of 500 ppm with the following compound: C2

The subject of data set [6] is Phakopsora pachyrhizi. In words: Phakopsora test (soybeans) / protective. In kind it is in vivo. Particulars: 500 ppm of active ingredient, evaluated 11 days after inoculation. The procedure:
Solvent: 28.5 parts by weight of acetone Emulsifier: 1.5 parts by weight of polyoxyethylene alkyl phenyl ether
To produce a suitable preparation of active compound, 1 part by weight of active compound is mixed with the stated amounts of solvent and emulsifier, and the concentrate is diluted with water to the desired concentration.
To test for protective activity, young plants are sprayed with the preparation of active compound at the stated rate of application. One day after spraying, the plants are inoculated with an aqueous spore suspension of the causal agent of soybean rust (Phakopsora pachyrhizi). The plants are then placed in a greenhouse at approximately 20° C. and a relative atmospheric humidity of approximately 80%.
The test is evaluated 11 days after the inoculation. 0% means an efficacy which corresponds to that of the control, while an efficacy of 100% means that no disease is observed.

The mark [7] stands for this setting: HPLC on reversed phase columns, usually LC-MS at pH 2.7 with 0.1% formic acid in water and acetonitrile, linear gradient 10% to 95% acetonitrile, read-out: log p.

With `CC(=O)NCc1cc(-c2ccnc(Nc3cccc(Cl)c3)n2)ccn1` [Compound A4], the “protection (good, at least 70%, or total)” value in data set [1] is on record as “at least 70%”. Besides, the log p in data set [2] came to 2.03.
On to `CC(N)c1cc(-c2ncnc(Nc3cccc(Cl)c3)n2)ccn1` (stereo not drawn) [Compound C2, 4-[2-(1-aminoethyl)pyridin-4-yl]-N-(3-chlorophenyl)-1,3,5-triazin-2-amine], for which the efficacy in data set [3] and in data set [4] was not below 80% in each case. Besides, the chromatographic logP in data set [2] (LC-MS at pH 7.8, 0.001 molar ammonium hydrogen carbonate in water, gradient 10% to 95% acetonitrile, read-out: log p [c]) worked out at 1.81. Moreover, the “protection (good, at least 70%, or total)” value in data set [5] is “at least 70%”.
Regarding `OCc1cc(-c2ccnc(Nc3cccc(Cl)c3)n2)ccn1` [Compound A14, (4-{2-[(3-chlorophenyl)amino]pyrimidin-4-yl}pyridin-2-yl)methanol], the chromatographic logP in data set [2] (setting [7]) stood at 1.91. Besides, in data set [6], the efficacy is reported as not below 80%.
As to `O=C(NCc1cc(-c2ccnc(Nc3cccc(Cl)c3)n2)ccn1)C1CCC1` [Compound A7], the log p in data set [2] is on record as 2.69.
For the molecule `CCOCCNCc1cc(-c2ccnc(Nc3cccc(Cl)c3)n2)ccn1` [Example A95], the log p in data set [2] is on record as 1.84.
In data set [2], `CC(NC(=O)C1CC1)c1cc(-c2ccnc(Nc3cccc(Cl)c3)n2)ccn1` (stereo not drawn) [Compound A93] yielded a log p of 2.64.
As to `C=COC(=O)NCc1cc(-c2ncnc(Nc3cccc(Cl)c3)n2)ccn1` [Compound C5], the log p in data set [2] amounted to 2.84.
The molecule `COCCOCCSCc1cc(-c2ccnc(Nc3cccc(Cl)c3)n2)ccn1` [Compound A73] returned a log p in data set [2] of 3.11.
With `CCC(C)CNC(=S)NCc1cc(-c2ccnc(Nc3cccc(Cl)c3)n2)ccn1` (stereo not drawn) [Compound A6, 1-[(4-{2-[(3-chlorophenyl)amino]pyrimidin-4-yl}pyridin-2-yl)methyl]-3-(2-methylbutyl)thiourea], in data set [2] (setting [7]), the chromatographic logP stood at 3.59.
With `CC(C)C(=O)NCc1cc(-c2ccnc(Nc3cccc(Cl)c3)n2)ccn1` [Compound A2, N-[(4-{2-[(3-chlorophenyl)amino]pyrimidin-4-yl}pyridin-2-yl)methyl]-2-methyl propanamide], the log p in data set [2] worked out at 2.52.
